Experiments:
[1] = tested on: Botrytis cinerea strain BO-05; assay: Detached petunia leaves dipped in Phe, wound inoculated with B. cinerea conidia; assay type: in vivo; settings: 15 mM Phe dip, 7 days post inoculation, vs non-treated controls
Experimental: Petunia (Petunia×hybrida) V26 variety, and a commercial white flowered cultivar (Dream White) cultivars were used. Petunia plants were grown as described in Oliva et al., (2015). Arabidopsis plants were grown as described in Tzin et al., (2012).
Conidia of Botrytis cinerea strain BO-05 were grown on PDA medium for 10 days. Conidia were gently collected from the plate in sterile water and were diluted to 10^6 conidia/ml. Fresh leaves of similar age and size of Petunia or Arabidopsis were detached from the plant, washed with water and placed in a humid chamber, under artificial light at 22° C. The upper side of the leaves was wounded (1-2 mm) and 5 μl drops of conidia suspension at a concentration of 10^6 conidia/ml were placed on the artificial wound. Decay diameter was measured following inoculation in specific days post inoculation (dpi) as detailed in the results.
Petunia leaves were dipped for 10 min in double distilled water with 0.02% Silwett L-77 surfactant supplemented either with 15 mM or 0 mM phenylalanine. Leaves were then placed in a humid box, and wound inoculated with B. cinerea was performed as described above.
In an independent experiment the decay diameter of detached leaves of wild type petunia (V26 cultivar) treated with 15 mM Phe or with […]. […]
Necrotic area was measured at 3, 4 and 7 days post inoculation (dpi). […]

[2] = tested on: Sclerotinia sclerotiorum; assay: Tomato leaves, white rot after spray or drench treatment; assay type: in vivo; settings: spray and drench, 4 mM
Experimental: Phe concentration used was 4 mM. Results are presented by disease severity scoring of AUDPC (area under disease progress curve during 15 days after infection) where the severity is marked by units of rot area (mm^2) multiplied by the time of incubation.

[3] = tested on: Pythium aphanidermatum; assay: Cucumber plantlets, damping off disease after drench; assay type: in vivo; settings: 4 mM drench
Experimental: Phe concentration used was 4 mM. Results are presented by the percentage of dead plants incidence (FIG. 9A). FIG. 9B: control treatment=lower row and Phe treatment=upper row.
Cucumber plantlets cv. Bet Alpha and grown in peat based growing medium were treated either by drenching 4 mM phenylalanine solution, 10 ml per pot containing 4 plants each. and the percent plantlets that survived was determined in each treatment. […] FIG. 9B presents two pots of each treatment; Pots in the lower row were not treated and pots in upper row were treated with 4 mM Phe.

[4] = tested on: Plenodomus tracheiphilus syn Phoma tracheiphila; assay: Lemon plants in pots, mal secco disease after leaf wounding and conidia infection; assay type: in vivo; settings: 4 mM, drenching 10 ml per pot or spraying
Experimental: Phe concentration used was 4 mM. Results are presented by disease incidence of infection sites as percent resulting from drench treatment (lower FIG. 7A) and spray treatment (upper FIG. 7A)
Lemon plants in pots were treated with 4 mM Phe water solutions either by drenching 10 ml of solution per pot or spraying, as described for tomato. Infection was carried out by conidia suspension of Plenodomus tracheiphilus after leaf wounding by a needle. Disease incidence was evaluated according to the amount of successful infection sites on the infected leaves and presented as percent of infected leaves.

[5] = tested on: B. cinerea; assay: Cut Ruscus branches drenched or dipped in Phe, leaves wounded and inoculated with B. cinerea; assay type: in vivo, Botrytis cinerea; settings: whole branches dipped for an hour in 6 mM
Experimental: Ruscus branches serve as an ornamental decorative. These plants are very susceptible to Botrytis. Cut branches were treated with Phe either by drenching the tip of the cut branch in the Phe solution (FIG. 4B), or dipping the whole cut branch in Phe solution for an hour before dipping it in water and inoculating with botrytis. In both treatments the concentration used was 6 mM phenylalanine, and for the drenching treatment an additional concentration of 20 mM was added (FIG. 4A). For the dipping experiment 50 ppm T.O.G-6 was added to the Phe solution to prevent bacterial growth during the days of the experiment. Control branches were drenched in water and dipped in water with 50 ppm T.O.G-6. Ruscus leaves were wounded and inoculated with B. cinerea as described in the above Examples. Decay area (mm*2) results are presented as averages of 10 replications with each being a leaf from one of 10 branches±SE.

[6] = tested on: B. cinerea; assay: Whole petunia plants sprayed or pots drenched, leaves inoculated with B. cinerea; assay type: in vivo, Botrytis cinerea; settings: for B. cinerea infection (decay area): 0.5 mM, spraying
Experimental: Inoculation with B. cinerea was performed 3 days after Phe treatment. In this case only one Phe treatment was performed however multiple treatments can be used e.g., first-three days prior to inoculation and a second one on the day of inoculation (data not shown but results are similar). 18 leaves were inoculated with B. cinerea, as described above. The plants were covered with a nylon bag and kept in the light and 22° C. (as above).
Commercial petunia plants (‘Dream Heaven’) were treated as described above in Example 3, either by spraying the plants (FIG. 3A) or drenching the pots (FIG. 3B), this time with increasing concentrations of Phe (6-50 mM).

[7] = tested on: Sclerotinia sclerotiorum; assay: Sweet basil plants in pots, white rot after mycelium disc inoculation; assay type: in vivo; settings: 4.1 mM, spray or drench
Experimental: Phe concentration used was 4.1 mM. Results are presented by disease severity scoring of AUDPC (area under disease progress curve during 6 days after infection) where the severity is marked by units of rot diameter (mm) multiplied by the time of incubation.
Sweet basil plants in pots were treated with 4.1 mM Phe as described for tomato, and inoculated with a S. sclerotiorum mycelium disc from 4 days potato dextrose agar culture (White rot), related to botrytis, both being from the Ascomycota division.

[8] = tested on: Botrytis cinerea (isolate BcI16); assay: Gray mold on attached leaves of tomato plants treated by spray or drench; assay type: in vivo; settings: for B. cinerea infection (disease severity): 0.5 mM, spraying
Experimental: Tomato plants (tomato cultivar-Brigate) were grown from seeds in a nursery and transplanted into 1 liter pots at 40 to 50 days following seeding in an unheated greenhouse. Plants were fertilized proportionally with drippers 2-3 times per day with 5:3:8 NPK fertilizer (irrigation water was planned to have total N, P and K concentrations of 120, 30 and 150 mg/L, respectively; EC 2.2 dS/m), allowing for 25-50% drainage. Plants were maintained at 20-30° C. with natural light, and relative humidity of 50-90% in a pest- and disease-free greenhouse during the growth period and then transferred to an area where disease was allowed to develop following pathogen infection on intact leaves as described below.
Botrytis cinerea [Pers.:Fr. [Teleomorph: Botryotinia fuckeliana (de Bary) Whetzel] (isolate BcI16; [Swartzberg D. et al., Eur. J. Plant Pathol., 2008, 120:289-297])] was cultured on potato dextrose agar (PDA, Difco, Detroit, MI) in 90 mm diam. petri plates containing 15 ml PDA each and incubated at 20° C. The inoculum was maintained on PDA and transferred every two weeks. Gray mold conidia were harvested from 10 to 14 day-old cultures by agitating 1 cm^2 of agar bearing mycelium and conidia in a glass tube with tap water. The suspension was then filtered through cheesecloth. The concentration of conidia was determined using a haemocytometer and a light microscope, and adjusted to 5×10^5 conidia/ml. Since B. cinerea conidia need carbon and phosphate for germination and penetration, 0.1% glucose was added to the final conidial suspension together with 0.1% KH2PO4.
Plant attached tomato leaves were examined. Whole plants were kept in a humidity chamber at 22±1° C., 97±3% RH, and 1020 lux light intensity. Plants were infected by placing 10 μL drops of a 5×10^5 conidia/ml suspension, 5 drops/leaf (one drop on each leaflet), on two mature leaves.
Disease severity was evaluated on each plant using a pictorial key; 0=no infection (infection site is symptomless) and 100=all infection site fully covered by gray mold symptoms. The analyses were performed in the mentioned plants.
Phenylalanine treatment consisted of either spray or drench at concentrations of 0.5-4.1 mM administrated 3 and 0 days before infection with B. cinerea. Control plants were treated by water and kept under the same conditions as mentioned above.
Treatments in experiments were replicated 5 times. Replicates of each treatment were arranged randomly. Disease severity data in percentages were arcsin-transformed before further analysis. Disease severity data were analyzed using ANOVA and Fisher's protected LSD test and disease levels were statistically separated (P≤0.05) following a one-way analysis of variance.
Specifically, tomato plants were sprayed with increasing concentrations of Phe solutions (0.5-30 mM aquatic solution of Phe, no detergent) and percent disease severity was determined 11 days following treatment.

[9] = tested on: Alternaria alternata; assay: Postharvest avocado fruit dip, inoculation with Alternaria alternata; assay type: in vivo; settings: avocado 'Ettinger', dip 30 seconds at 1-4 mM, 6 days post inoculation, 23° C.
Experimental: FIG. 8 are images of avocado fruits of the cultivar ‘Ettinger’ dipped in water or 1 mM or 4 mM phenylalanine for 30 seconds and stored for one day at 5° C. Then the avocado fruit were inoculated by wounding at the fruit equatorial with […] of spore suspension of Alternaria alternata at the concentration of 10^5 conidia/ml at two sides of the fruit. The fruits were stored at 23° C. The decay area was monitored during 6 days post inoculation. Clearly, the fruit treated with Phe solutions, postharvest show
Avocado fruits of the cultivar ‘Ettinger’ were dipped in water or 1 mM or 4 mM phenylalanine for 30 seconds and stored for one day at 5° C. Then the avocado fruit were inoculated at the fruit equatorial with Alternaria alternata at the concentration of 10^5 conidia/ml at two sides of the fruit. The decay area was monitored during 6 days post inoculation, while incubation at 23° C.

## N[C@@H](Cc1ccccc1)C(=O)O [Phe, Phenylalanine]
[1]
  diameter of decay: significantly smaller
[2]
  resistance of tomato leaves to white rot: increase the resistance
[3]
  tolerance to Pythium aphanidermatum (percentage of dead plants): increased tolerance
[4]
  resistance of the plant leaves to the fungus (disease incidence): increased the resistance
[5]
  resistance to botrytis (decay area): increased resistance of the plants to botrytis significantly
[6]; petunia 'Dream Heaven', spray or drench, 6-50 mM
  resistance of the plants to B. cinerea at higher concentrations: increased resistance
[6]; petunia
  B. cinerea infection (decay area): reduced B. cinerea infection
[6]; petunia, 35 and 50 mM, 7 days after spraying and 10 days after drenching
  decay area: no increased decay area
[6]; whole petunia plants, 4.1 mM Phe vs 6 mM Phe
  degree of resistance, 4.1 mM compared with 6 mM: a little lower
[6]; whole petunia plants, spraying or drenching, 6 mM, inoculation 3 days after treatment
  tolerance to B. cinerea (decay area): Increases Tolerance
[7]
  disease symptoms (white rot): significant reduction in disease symptoms
[8]; 0.5 mM Phe with 0.01% Tween 80 vs without
  effect of adding a surfactant on resistance to B. cinerea: improved the effect of increased resistance
[8]
  B. cinerea infection (disease severity): reduced B. cinerea infection
[8]; drench to the root zone, 0.5 to 4.1 mM
  disease severity (gray mold): reduced significantly
[8]; spray, 20 and 30 mM (results not shown)
  duration of resistance: increased resistance for a longer period of time
[8]; sprayed on the plants, 1.0 to 4.1 mM
  disease severity (gray mold): reduced significantly
[9]
  area of brown spots: reduced the area of brown spots caused by Alternaria alternata by four folds

## N[C@@H](Cc1ccc(O)cc1)C(=O)O [Tyr, Tyrosine]
[6]; petunia
  B. cinerea infection (decay area): reduced B. cinerea infection
[8]
  B. cinerea infection (disease severity): reduced B. cinerea infection

Source: US11812746B2, “Method of controlling fungal infections in plants” (THE STATE OF ISRAEL, MINISTRY OF AGRICULTURE & RURAL …, priority 2016, dated 2023)
